Laboratory results from patent US20260315434A1, “USE OF GUAIACOL SESQUITERPENE LACTONE DERIVATIVES” (NANJING UNIVERSITY OF CHINESE MEDICINE, priority 2023, published 2026).
Converted amounts (≈) assume the structure as drawn. Like-named read-outs stand apart in the source and are kept apart here.

Legend:
T cells / MDSCs = experiment: Promotion of T cell proliferation in a co-culture model of MDSCs and T cells; assay type: cell-based, mouse; settings: for activation at 1 µM: Mus musculus, T-cell, 12 h, read-out: T-cell proliferation rate (%), 1 μM, MDSCs treated 12 hours, co-culture of MDSCs and T cells, compared to the control group; for T-cell proliferation rate (%): 1 μM, MDSCs treated 12 hours, co-culture of MDSCs and T cells, compared to the control group
Experimental: Under sterile conditions, the tibia was removed, both ends of the bone were cut, and bone marrow was repeatedly flushed into a 15 mL centrifuge tube using a 1 mL syringe filled with culture medium. Centrifuge at 1600 rpm for 5 min to collect bone marrow cells. […] The spleen cell suspension was then transferred into a 15 mL centrifuge tube. Centrifuge at 1600 rpm for 5 min to collect T cells. Wash twice with 1×PBS. Resuspend the centrifuged T cells in 1 mL PBS and add 1 mL of 10 μM CFDA-SE solution. Incubate at room temperature for 8 min. […] After drug administration, collect MDSC cells into centrifuge tubes. Centrifuge at 1600 rpm for 5 min, remove supernatant, resuspend in 1 mL fresh medium, and plate. Add 1 mL stimulated activated T cells (1:1 ratio) for 48 h co-culture. After incubation, collect cells into centrifuge tubes, wash twice with PBS, and incubate with Fc antibody at room temperature in the dark for 10 min. Add CD3-labeled flow cytometry antibody and incubate at 4° C. in the dark for 30 min. After incubation, wash cells with PBS, resuspend in 300 μL PBS, and analyze by flow cytometry.

[1] = Water solubility testing of compounds (HPLC); settings: deionized water, 37 °C; for solubility: water, Water-solubility
[2] = Conversion (release) of prodrug salts to parent compound in HEPES buffer pH 7.4; assay type: in vitro ADME; settings: for degraded at 1 h / degraded at 2 h / degraded at 4 h / degraded at 8 h / degraded at 12 h: hepes buffer, pH 7.4, HEPES pH 7.4, 37 °C; for Release rate (conversion to Compound 83): HEPES pH 7.4, 37 °C
Experimental: (§1) Pharmaceutically acceptable salts of guaiane-type sesquiterpene lactone derivatives were selected and evaluated for their conversion rates to Compound 1 and Compound 83 in plasma and HEPES buffer, with results shown in Tables 2-1, 2-2, 3-1, and 3-2.
Experimental Method: Preparation of HEPES 7.4 Solution: Dissolve 1.6 g NaCl, 0.074 g KCl, 0.027 g Na2HPO4, 0.2 g glucose, and 1 g 4-(2-Hydroxyethyl)piperazine-1-ethanesulfonic acid (HEPES) solution in 90 mL distilled water. Adjust the pH to 7.4 using 0.5 M NaOH, then dilute to a final volume 100 mL with distilled water.
(§2) Sample Analysis: Dissolve 0.6 mg of the compound in 250 μL of deionized water separately. Add 250 μL of mouse serum or HEPES 7.4 solution to the sample, incubate at a constant temperature of 37° C., and collect samples at different time points. Pipette 20 μL of the sample to an EP tube, add 60 μL of methanol, vortex to mix thoroughly, and centrifuge at 12,000 rpm at 4° C. for 10 min. At 1 h, 2 h, 4 h, 8 h, and 12 h respectively, collect the supernatant for HPLC analysis. Inject 10 μL of sample and record the corresponding peak areas. Chromatographic conditions: Hanbang C18 column (4.6×250 mm, 5 μm); mobile phase: acetonitrile: […] ammonium formate solution=60:40; flow rate 1.0 mL/min; detection wavelength 210 nm; column temperature 30° C.

[3] = Conversion (release) of prodrug salts to parent compound in mouse plasma; assay type: in vitro ADME; settings: 37 °C; for metabolised at 1 h / metabolised at 2 h / metabolised at 4 h / metabolised at 8 h / metabolised at 12 h: mouse, plasma
Experimental: as §1
Plasma Preparation: Collect mouse plasma into an EP tube pre-loaded with sodium heparin, centrifuge at 8000 rpm for 10 minutes at 4° C., and then collect the supernatant.
as §2

[4] = 1 h, read-out: Release rate (conversion to Compound 83)
[5] = 2 h, read-out: Release rate (conversion to Compound 83)
[6] = 4 h, read-out: Release rate (conversion to Compound 83)
[7] = 8 h, read-out: Release rate (conversion to Compound 83)
[8] = 12 h, read-out: Release rate (conversion to Compound 83)
[9] = 1 h, read-out: Release rate (conversion to Compound 1)
[10] = 2 h, read-out: Release rate (conversion to Compound 1)
[11] = 4 h, read-out: Release rate (conversion to Compound 1)
[12] = 8 h, read-out: Release rate (conversion to Compound 1)
[13] = 12 h, read-out: Release rate (conversion to Compound 1)

Row | SMILES | activation at 1 µM (T cells / MDSCs) [%] | Water-solubility [1] [mg/mL] | T-cell proliferation rate (%) (T cells / MDSCs) | degraded at 1 h [2, 9] [%] | degraded at 2 h [2, 10] [%] | degraded at 4 h [2, 11] [%] | degraded at 8 h [2, 12] [%] | degraded at 12 h [2, 13] [%] | metabolised at 1 h [3, 9] [%] | metabolised at 2 h [3, 10] [%] | metabolised at 4 h [3, 11] [%] | metabolised at 8 h [3, 12] [%] | metabolised at 12 h [3, 13] [%] | further results
1 | C[C@@]12CC[C@@H]3[C@H](OC(=O)[C@H]3CN3CCOCC3)[C@@H]3[C@]1(CC[C@@]3(C)O)C2 [Compound 6] | 0 to 20 | 0.668 | – | – | – | – | – | – | – | – | – | – | – | –
2 | CC1=C2CC[C@@](C)(OC(=O)N3CCCCC3)[C@@H]2[C@H]2OC(=O)[C@@H](CN3CCCC3)[C@@H]2CC1 [Compound 100] | – | – | + (T-cell proliferation rate within the 0-20% range compared to the control group) | – | – | – | – | – | – | – | – | – | – | degraded at 1 h [2, 4]: 6.5%; degraded at 2 h [2, 5]: 14%; degraded at 4 h [2, 6]: 26.4%; degraded at 8 h [2, 7]: 45.2%; degraded at 12 h [2, 8]: 51.4%; metabolised at 1 h [3, 4]: 6.6%; metabolised at 2 h [3, 5]: 13.8%; metabolised at 4 h [3, 6]: 25.6%; metabolised at 8 h [3, 7]: 43.2%; metabolised at 12 h [3, 8]: 53%; solubility [1]: 145 mg/mL (≈ 336 mM)
3 | CCOC(=O)[C@@H]1CCCN1C[C@@H]1C(=O)O[C@H]2[C@H]1CC[C@@]1(C)C[C@]13CC[C@@](C)(O)[C@H]23 [Compound 23] | – | 362.3 | + (T-cell proliferation rate within the 0-20% range compared to the control group) | 6.2 | 14.3 | 26.8 | 41.1 | 52.8 | 7.2 | 14.3 | 26.8 | 45.1 | 52.8 | –
4 | C[C@@]12CC[C@@H]3[C@H](OC(=O)[C@H]3CN3CCOCC3)[C@@H]3[C@]1(CC[C@@]3(C)O)C2 [Compound 25] | – | – | – | 6.8 | 14.1 | 26.1 | 42.8 | 51.8 | 6.8 | 14.1 | 25.7 | 43.8 | 51.8 | solubility [1]: 342 mg/mL (≈ 979 mM)
5 | C[C@@]12CC[C@@H]3[C@H](OC(=O)[C@H]3CN3CCCCC3)[C@@H]3[C@]1(CC[C@@]3(C)O)C2 [Compound 5] | 20 to 40 | 0.730 | – | – | – | – | – | – | – | – | – | – | – | –
6 | C[C@@]12CC[C@@H]3[C@H](OC(=O)[C@H]3CN3CCC(N4CCOCC4)CC3)[C@@H]3[C@]1(CC[C@@]3(C)O)C2 [Compound 36] | – | 234.6 | – | 6.9 | 14.8 | 26 | 43.6 | 52.4 | 6.6 | 14.8 | 26 | 43.6 | 52.1 | –
7 | CC(C)N(C[C@@H]1C(=O)O[C@H]2[C@H]1CC[C@@]1(C)C[C@]13CC[C@@](C)(O)[C@H]23)C(C)C [Compound 31] | – | 254.6 | – | 6.7 | 14 | 23 | 41.2 | 49.5 | 6.5 | 13.9 | 24.4 | 40.2 | 48.5 | –
8 | C[C@@]12CC[C@@H]3[C@H](OC(=O)[C@H]3CN3CCC(N4CCCCC4)CC3)[C@@H]3[C@]1(CC[C@@]3(C)O)C2 [Compound 35] | – | 212.6 | – | 6.8 | 14.6 | 26.4 | 43.8 | 52.5 | 6.8 | 13.6 | 26.4 | 44.8 | 52.5 | –
9 | CC1=C2CC[C@@](C)(OC(=O)N3CCCCC3)[C@@H]2[C@H]2OC(=O)[C@@H](CN3CCCC3)[C@@H]2CC1 [Compound 101] | – | 108.0 | + (T-cell proliferation rate within the 0-20% range compared to the control group) | – | – | – | – | – | – | – | – | – | – | Release rate (conversion to Compound 83) ([2]; 1 h, 60 min): 7.0%; Release rate (conversion to Compound 83) ([2]; 2 h, 120 min): 16.0%; Release rate (conversion to Compound 83) ([2]; 4 h, 240 min): 28.2%; Release rate (conversion to Compound 83) ([2]; 8 h, 480 min): 46.4%; Release rate (conversion to Compound 83) ([2]; 12 h, 720 min): 53.6%; Release rate (conversion to Compound 83) ([3]; 1 h, 60 min): 7.6%; Release rate (conversion to Compound 83) ([3]; 2 h, 120 min): 16.6%; Release rate (conversion to Compound 83) ([3]; 4 h, 240 min): 27.4%; Release rate (conversion to Compound 83) ([3]; 8 h, 480 min): 46.0%; Release rate (conversion to Compound 83) ([3]; 12 h, 720 min): 54.2%
10 | C[C@@]12CC[C@@H]3[C@H](OC(=O)[C@H]3CN3CCCC3)[C@@H]3[C@]1(CC[C@@]3(C)O)C2 [Compound 3] | 20 to 40 | 1.305 | – | – | – | – | – | – | – | – | – | – | – | –
